# Measured values as given in patent US20070299092A1 (Wyeth, priority 2004, published 2007).
# Several values for one entry are separate records, joined by “and”; a condition that tells them apart may be missing. Identical values can stand only once. Like-named read-outs stand apart in the source and are kept apart here.
# Columns and labels:
# [1] = biological target: T1, human KDR (VEGF-receptor-2) (Homo sapiens, UniProt P35968); assay: KDR kinase enzyme assay (DELFIA, KDR-IC-Flag, poly(Glu4-Tyr) peptide); format: biochemical; conditions: for inhibition at 0.1 µM: Concentration 100 nM; for inhibition at 1 µM: Concentration 1000 nM
# T1 construct: beginning at Met-806; (5′-ATG GAT CCA GAT GM CTC CCA TTG) and ending at Val-1356; made in house
# [2] = tested on: Human umbilical vein endothelial cells (HUVEC); assay: HUVEC proliferation assay, VEGF-dependent growth ([3H]-thymidine incorporation); format: cell-based; conditions: for inhibition at 0.1 µM / inhibition at 1 µM / inhibition at 10 µM: Homo sapiens, HUVEC
# Protocol: Cells were plated into 96-well dishes (4000 cells per well) and allowed to attach overnight. HUVEC were rinsed one time with 100 μl of EBMc-V (EBM supplemented with all above components except serum or VEGF), then 50 ul of EBMc-V was added to cells. Compounds were prepared at 200× stocks in DMSO, diluted into EBMc-V media as 4× stocks, then 50 ul added to appropriate wells. Finally, 100 μl of 2×VEGF (100 ng/ml prepared in EBMc-V; final 50 ng/ml VEGF) was added to all VEGF-treated wells. EBMc-V (no VEGF) was added to negative control wells. Parallel compound-treated plates were prepared except that 100 μl of EGM2 media containing 2% serum but lacking VEGF (EGMc-V) was added. Cells were incubated for 4-5 days at 37° C.
# DNA synthesis was assessed by thymidine incorporation. Cells were incubated for 5 hours in 1 μCi of [^3H]-thymidine (PerkinElmer) by addition of 10 ul of 0.1 μCi/ul thymidine prepared in PBS to each well. After incubation, media was aspirated and the cells trypsinized and collected onto a mat using a vacuum-based Micro Cell Harvester (Skatron). [^3H]-thymidine was counted in a liquid scintillation counter. Compounds evaluated for ability to inhibit VEGF-dependent growth of human umbilical vein endothelial cells (HUVEC).
# KDR = KDR (Homo sapiens, UniProt P35968); assay: cell-based; conditions: read-out: % Inhibition of KDR kinase autophosphorylation in KDR15 cells, compound conc. 1000 nM
# [3] = ATP conc. 10 μM, read-out: % Inhibition
# [4] = ATP conc. 1000 μM, read-out: % Inhibition
# Sequence of KDR (P35968 20-1356): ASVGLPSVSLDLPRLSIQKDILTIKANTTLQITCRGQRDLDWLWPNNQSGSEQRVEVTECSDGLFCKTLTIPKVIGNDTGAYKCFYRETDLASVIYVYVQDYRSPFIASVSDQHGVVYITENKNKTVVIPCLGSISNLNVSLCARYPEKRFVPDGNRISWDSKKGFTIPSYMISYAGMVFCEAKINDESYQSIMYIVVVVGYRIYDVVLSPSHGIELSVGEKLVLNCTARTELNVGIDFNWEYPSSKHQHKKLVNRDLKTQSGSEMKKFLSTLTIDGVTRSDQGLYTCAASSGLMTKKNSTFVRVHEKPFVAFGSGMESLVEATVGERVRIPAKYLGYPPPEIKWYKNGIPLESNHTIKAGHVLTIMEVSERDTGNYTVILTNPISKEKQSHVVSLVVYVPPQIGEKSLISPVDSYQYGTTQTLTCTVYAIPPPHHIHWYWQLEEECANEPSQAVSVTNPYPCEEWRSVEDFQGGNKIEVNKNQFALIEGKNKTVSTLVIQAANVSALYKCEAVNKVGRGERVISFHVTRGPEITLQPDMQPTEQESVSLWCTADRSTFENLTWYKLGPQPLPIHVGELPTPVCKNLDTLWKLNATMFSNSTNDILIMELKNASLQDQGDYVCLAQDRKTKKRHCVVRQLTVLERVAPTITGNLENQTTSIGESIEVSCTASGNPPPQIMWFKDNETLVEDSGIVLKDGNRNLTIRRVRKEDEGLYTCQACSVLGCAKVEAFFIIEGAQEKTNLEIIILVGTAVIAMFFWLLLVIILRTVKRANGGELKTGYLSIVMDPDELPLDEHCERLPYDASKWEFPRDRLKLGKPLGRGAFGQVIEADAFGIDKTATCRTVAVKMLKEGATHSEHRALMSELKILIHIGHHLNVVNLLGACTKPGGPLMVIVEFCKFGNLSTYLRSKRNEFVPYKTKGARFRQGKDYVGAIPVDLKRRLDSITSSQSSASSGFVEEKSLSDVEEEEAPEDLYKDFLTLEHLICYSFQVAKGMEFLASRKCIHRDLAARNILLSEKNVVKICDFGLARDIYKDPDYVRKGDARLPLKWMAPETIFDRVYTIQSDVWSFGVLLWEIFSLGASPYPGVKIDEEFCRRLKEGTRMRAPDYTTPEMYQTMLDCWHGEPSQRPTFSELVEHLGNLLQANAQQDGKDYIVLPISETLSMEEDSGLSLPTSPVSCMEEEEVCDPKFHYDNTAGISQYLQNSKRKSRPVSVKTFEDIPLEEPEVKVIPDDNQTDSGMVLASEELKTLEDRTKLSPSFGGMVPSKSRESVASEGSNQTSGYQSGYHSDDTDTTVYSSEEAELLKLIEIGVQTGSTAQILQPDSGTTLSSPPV
# T1 sequence (P35968 806-1356): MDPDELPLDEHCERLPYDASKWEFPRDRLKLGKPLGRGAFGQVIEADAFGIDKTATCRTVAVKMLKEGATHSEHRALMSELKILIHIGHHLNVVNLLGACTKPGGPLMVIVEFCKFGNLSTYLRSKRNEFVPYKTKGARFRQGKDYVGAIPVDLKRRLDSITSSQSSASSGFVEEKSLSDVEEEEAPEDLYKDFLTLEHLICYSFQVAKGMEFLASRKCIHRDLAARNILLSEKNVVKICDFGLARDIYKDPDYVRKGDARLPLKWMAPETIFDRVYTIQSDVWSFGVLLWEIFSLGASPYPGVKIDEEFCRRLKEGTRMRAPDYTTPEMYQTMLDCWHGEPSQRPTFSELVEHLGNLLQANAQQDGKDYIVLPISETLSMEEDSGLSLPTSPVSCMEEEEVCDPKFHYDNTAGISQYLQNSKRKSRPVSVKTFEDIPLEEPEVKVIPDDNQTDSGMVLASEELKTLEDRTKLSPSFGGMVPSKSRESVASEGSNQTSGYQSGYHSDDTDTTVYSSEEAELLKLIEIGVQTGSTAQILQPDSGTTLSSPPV
Compound,IC50 ([1]; ATP conc. 10 μM) [nM],"inhibition at 0.1 µM [1, 3] [%]","inhibition at 1 µM [1, 3] [%]",inhibition at 10 µM ([2]; conc. 10000 nM) [%],inhibition at 1 µM (KDR) [%],other results
"COCCOc1cc2ncc(C#N)c(NC3=CC(=O)C(Oc4ccccc4)=CC3=O)c2cc1OC [Example 71, 4-[(3,6-dioxo-4-phenoxycyclohexa-1,4-dien-1-yl)amino]-6-methoxy-7-(2-methoxyethoxy)quinoline-3-carbonitrile]",273,41,85,–,–,"inhibition at 1 µM [1, 4]: 58%"
"COCCOc1cc2ncnc(NC3=CC(=O)C(N(C)c4ccccc4)=CC3=O)c2cc1OC [Example 76, 2-{[6-methoxy-7-(2-methoxyethoxy)quinazolin-4-yl]amino}-5-[methyl(phenyl)amino]benzo-1,4-quinone]",–,–,–,96,–,inhibition at 0.1 µM ([2]; conc. 100 nM): -30%; inhibition at 1 µM ([2]; conc. 1000 nM): 63%
"COCCOc1cc2ncnc(NC3=CC(=O)C(Sc4ccccc4)=CC3=O)c2cc1OC [Example 24, 2-{[6-methoxy-7-(2-methoxyethoxy)quinazolin-4-yl]amino}-5-(phenylthio)benzo-1,4-quinone]",–,96,92,–,0,"inhibition at 1 µM [1, 4]: 96%"
"COCCOc1cc2ncnc(NC3=CC(=O)C(Oc4ccc(C(=O)OC)cc4)=CC3=O)c2cc1OC [Example 42, methyl 4-[(4-{[6-methoxy-7-(2-methoxyethoxy)quinazolin-4-yl]amino}-3,6-dioxocyclohexa-1,4-dien-1-yl)oxy]benzoate]",–,92,94,–,64,–
"COCCOc1cc2ncnc(NC3=CC(=O)C(Oc4ccc(C(=O)OCc5ccccc5)cc4)=CC3=O)c2cc1OC [Example 48, benzyl 4-[(4-{[6-methoxy-7-(2-methoxyethoxy)quinazolin-4-yl]amino}-3,6-dioxocyclohexa-1,4-dien-1-yl)oxy]benzoate]",–,86,93,–,74,–
"COCCOc1cc2ncnc(NC3=CC(=O)C(Oc4ccc(F)cc4)=CC3=O)c2cc1OC [Example 30, 2-(4-fluorophenoxy)-5-{[6-methoxy-7-(2-methoxyethoxy)quinazolin-4-yl]amino}benzo-1,4-quinone]",–,–,–,–,–,inhibition at 0.1 µM ([1]; ATP conc. 10 μM): 83%; inhibition at 1 µM ([1]; ATP conc. 10 μM): 96%; inhibition at 1 µM ([1]; ATP conc. 1000 μM): 98%
"CCOC(=O)c1c(C)[nH]c2ccc(OC3=CC(=O)C(Nc4ncnc5cc(OCCOC)c(OC)cc45)=CC3=O)cc12 [Example 45, ethyl 5-[(4-{[6-methoxy-7-(2-methoxyethoxy)quinazolin-4-yl]amino}-3,6-dioxocyclohexa-1,4-dien-1-yl)oxy]-2-methyl-1H-indole-3-carboxylate]",2.6,92,93,–,99,–
"COCCOc1cc2ncnc(NC3=CC(=O)C(Oc4ccc(SC)cc4)=CC3=O)c2cc1OC [Example 35, 2-{[6-methoxy-7-(2-methoxyethoxy)quinazolin-4-yl]amino}-5-[4-(methylthio)phenoxy]benzo-1,4-quinone]",–,–,–,–,39,inhibition at 0.1 µM ([1]; ATP conc. 10 μM): 87%; inhibition at 1 µM ([1]; ATP conc. 10 μM): 96%; inhibition at 1 µM ([1]; ATP conc. 1000 μM): 98%
"COCCOc1cc2ncnc(NC3=CC(=O)C(Oc4ccccc4OCc4ccccc4)=CC3=O)c2cc1OC [Example 52, 2-[2-(benzyloxy)phenoxy]-5-{[6-methoxy-7-(2-methoxyethoxy)quinazolin-4-yl]amino}benzo-1,4-quinone]",–,91,95,–,94,–
"COc1cc2ncnc(NC3=CC(=O)C4(C)OC4C3=O)c2cc1OC (centres unmarked) [Example 5, 4-[(6,7-dimethoxy-4-quinazolinyl)amino]-1-methyl-7-oxabicyclo[4.1.0]hept-3-ene-2,5-dione]",–,18,49,–,56,"inhibition at 1 µM [1, 4]: 60%"
"CCOC(=O)Cc1ccc(OC2=CC(=O)C(Nc3ncnc4cc(OCCOC)c(OC)cc34)=CC2=O)cc1 [Example 37, ethyl {4-[(4-{[6-methoxy-7-(2-methoxyethoxy)quinazolin-4-yl]amino}-3,6-dioxocyclohexa-1,4-dien-1-yl)oxy]phenyl}acetate]",–,89,93,–,11,–
"COCCOc1cc2ncnc(NC3=CC(=O)C(Oc4ccc(C(F)(F)F)cc4)=CC3=O)c2cc1OC [Example 36, 2-{[6-methoxy-7-(2-methoxyethoxy)quinazolin-4-yl]amino}-5-[4-(trifluoromethyl)phenoxy]benzo-1,4-quinone]",–,79,96,–,–,"inhibition at 1 µM [1, 4]: 98%"
"COCCOc1cc2ncnc(NC3=CC(=O)C(Oc4ccc(C(=O)Cc5ccccc5)cc4)=CC3=O)c2cc1OC [Example 49, 2-{[6-methoxy-7-(2-methoxyethoxy)quinazolin-4-yl]amino}-5-[4-(phenylacetyl)phenoxy]benzo-1,4-quinone]",149,88,93,–,90,–
"COCCOc1cc2ncnc(NC3=CC(=O)C(Oc4ccc(C)cc4-c4ccno4)=CC3=O)c2cc1OC [Example 47, 2-(2-isoxazol-5-yl-4-methylphenoxy)-5-{[6-methoxy-7-(2-methoxyethoxy)quinazolin-4-yl]amino}benzo-1,4-quinone]",–,86,94,–,66,–
"COCCOc1cc2ncnc(NC3=CC(=O)C(Oc4ccc(C#N)cc4)=CC3=O)c2cc1OC [Example 31, 4-[(4-{[6-methoxy-7-(2-methoxyethoxy)quinazolin-4-yl]amino}-3,6-dioxocyclohexa-1,4-dien-1-yl)oxy]benzonitrile]",–,–,–,–,–,inhibition at 0.1 µM ([1]; ATP conc. 10 μM): 82%; inhibition at 1 µM ([1]; ATP conc. 10 μM): 96%; inhibition at 1 µM ([1]; ATP conc. 1000 μM): 98%
"COCCOc1cc2ncnc(NC3=CC(=O)C(Cl)=CC3=O)c2cc1OC [Example 25, 2-chloro-5-{[6-methoxy-7-(2-methoxyethoxy)quinazolin-4-yl]amino}benzo-1,4-quinone]",–,–,–,81,–,inhibition at 0.1 µM ([2]; conc. 100 nM): 29%; inhibition at 1 µM ([2]; conc. 1000 nM): 51%
"COCCOc1cc2ncnc(NC3=CC(=O)C(Oc4ccc(OC)cc4)=CC3=O)c2cc1OC [Example 32, 2-{[6-methoxy-7-(2-methoxyethoxy)quinazolin-4-yl]amino}-5-(4-methoxyphenoxy)benzo-1,4-quinone]",4.8,–,–,98,–,inhibition at 0.1 µM ([2]; conc. 100 nM): 10%; inhibition at 1 µM ([2]; conc. 1000 nM): 41%; inhibition at 0.1 µM ([1]; ATP conc. 10 μM): 88%; inhibition at 1 µM ([1]; ATP conc. 10 μM): 96%; inhibition at 1 µM ([1]; ATP conc. 1000 μM): 98%
"COCCOc1cc2ncnc(NC3=CC(=O)C(C)=CC3=O)c2cc1OC [Example 15, 2-{[6-methoxy-7-(2-methoxyethoxy)-4-quinazolinyl]amino}-5-methylbenzo-1,4-quinone]",–,–,–,96,–,inhibition at 0.1 µM ([2]; conc. 100 nM): 24%; % Inhibition of VEGF-dependent growth of HUVEC ([2]; conc. 100 nM): 40% and 42%; % Inhibition of VEGF-dependent growth of HUVEC ([2]; conc. 1000 nM): 86% and 95% and 67%; % Inhibition of VEGF-dependent growth of HUVEC ([2]; conc. 10000 nM): 98% and 97%
"COCCOc1cc2ncnc(NC3=CC(=O)C(Oc4ccc(C(C)(C)c5ccccc5)cc4)=CC3=O)c2cc1OC [Example 56, 2-{[6-methoxy-7-(2-methoxyethoxy)quinazolin-4-yl]amino}-5-[4-(1-methyl-1-phenylethyl)phenoxy]benzo-1,4-quinone]",62.2,69,81,–,–,–
"COCCOc1cc2ncnc(NC3=CC(=O)C(Oc4cccc(C(F)(F)F)c4)=CC3=O)c2cc1OC [Example 43, 2-{[6-methoxy-7-(2-methoxyethoxy)quinazolin-4-yl]amino}-5-[3-(trifluoromethyl)phenoxy]benzo-1,4-quinone]",121,45,89,88,–,inhibition at 1 µM ([2]; conc. 1000 nM): 36%
"COCCOc1cc2ncnc(NC3=CC(=O)C(OC)=CC3=O)c2cc1OC [Example 105, 2-(methoxy)-5-{[6-methoxy-7-(2-methoxyethoxy)quinazolin-4-yl]amino}benzo-1,4-quinone]",–,–,–,88,–,inhibition at 0.1 µM ([2]; conc. 100 nM): -1%; inhibition at 1 µM ([2]; conc. 1000 nM): 36%
"COCCOc1cc2ncnc(NC3=CC(=O)C(Oc4ccc(C(=O)/C=C/c5ccccc5)cc4)=CC3=O)c2cc1OC [Example 55, 2-{[6-methoxy-7-(2-methoxyethoxy)quinazolin-4-yl]amino}-5-{4-[(2E)-3-phenylprop-2-enoyl]phenoxy}benzo-1,4-quinone]",5.4,90,93,99,–,inhibition at 0.1 µM ([2]; conc. 100 nM): 7%; inhibition at 1 µM ([2]; conc. 1000 nM): 61%
